Assay results as given in patent US10191062B2, “Model gut system” (priority 2013, dated 2019).

Tests used:
[1] = fatty acid released from the triglyceride substrate; cited from earlier work
lipase = assay: Glyceryl trioctanoate digestion in the model gut system (MGS), glycerol release; type: biochemical, porcine; settings: 2 mmol glyceryl trioctanoate; Orlistat at 2.5, 5 and 10 mg vs control digestion; FIG. 6
Description: Fresh porcine bile was extracted from fresh procine gall bladders (collected on ice from abattoir). Approximately 50 gall bladders were collected per batch. The collected bile was pooled, mixed and frozen down in 25 ml aliquots for storage, as 25 ml is required for each replicate.
Glyceryl trioctanoate was used as the tryglyceride substrate for all assays of fat digestion reported herein. In these experiments, 2 mmol (0.94136 g) of glyceryl trioctanoate was added to the synthetic saliva preparations at T[−10] wherein T[−10] means 10 minutes prior to addition of the synthetic saliva to the test system.
At T[−10], salivary preparations containing substrate/sample/controls were prepared as indicated hereinbefore and incubated for 10 minutes on rollers. […]
In all the experiments, data samples of 0.5 ml were taken at T0, T5, T10, T15, T30, T45, T60, T60^B, T65, T70, T75, T90, T105, T120, T150 and T180, wherein (T60^B) represents a second sample at T60 which was taken after the addition of fresh porcine bile. […] The test samples were stored at 4° C. overnight to allow for precipitation and then centrifuged at 10,000 r.p.m. for 10 minutes, after which the supernatant was analysed. […]
Triglyceride digestion can be measured using ZenBio Glycerol Reagent A to quantify the release of glycerol. A 5 μl of sample was incubated with 80 μl Reagent A for 30 minutes and colour development was measured at 550 nm. […]

Row | SMILES | pKa [1] | total glycerol recovered from the model gut system after TCA precipitation (lipase)
1 | CCCC(=O)O [Butyric Acid] | 4.84 | 
2 | CCCCCCCC/C=C\CCCCCCCC(=O)O [Oleic Acid] | 9.95 | 
3 | CCCCCCCCCCC[C@@H](C[C@@H]1OC(=O)[C@H]1CCCCCC)OC(=O)[C@H](CC(C)C)NC=O [Orlistat] |  | varies in accordance with the level of Orlistat
4 | CCCCCCCCCCCCCCCC(=O)O [Palmitic Acid] | 9.7 | 
5 | CCCCCCCCCCCCCCCCCC(=O)O [Stearic Acid] | 10.15 | 
